This note sets out measurements from patent US7989449B2, “4,5-dihydro-oxazol-2-yl amine derivatives” (Hoffman-La Roche Inc., priority 2008, dated 2011).

Structures can show the parent of a compound that is named as a salt.

The target of this experiment is T1, 6his-tagged full length BACE 1 from SF9 cells (Homo sapiens, UniProt P56817).
T1 construct: 6his-tagged full length BACE 1 from SF9 cells; made in house; host or cells: Sf9 insect cells
T1 sequence (P56817 46-501): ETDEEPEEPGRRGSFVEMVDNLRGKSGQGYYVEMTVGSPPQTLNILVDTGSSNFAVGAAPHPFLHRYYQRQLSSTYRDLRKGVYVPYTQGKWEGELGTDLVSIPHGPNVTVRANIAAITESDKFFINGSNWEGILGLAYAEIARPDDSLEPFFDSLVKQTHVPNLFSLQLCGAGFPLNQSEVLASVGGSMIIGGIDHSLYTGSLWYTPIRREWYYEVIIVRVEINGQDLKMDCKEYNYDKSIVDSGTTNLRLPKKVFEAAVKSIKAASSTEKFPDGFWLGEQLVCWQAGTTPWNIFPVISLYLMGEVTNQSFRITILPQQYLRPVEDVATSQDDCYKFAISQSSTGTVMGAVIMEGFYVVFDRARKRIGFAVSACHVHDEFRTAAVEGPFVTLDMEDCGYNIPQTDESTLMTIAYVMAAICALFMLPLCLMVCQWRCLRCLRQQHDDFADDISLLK
The experiment in a line: BACE1 MR121 protease assay. The experiment is classed as biochemical. The conditions noted are these: 30 nM 6his-BACE-1, 300 nM substrate peptide WSEVNLDAEFRC-MR121, Na-acetate pH 4.0, fluorescence. Here is the method: Assay plate: 384 well microtiter plate, Corning clear, flat bottom, non binding surface
Assaybuffer: 100 mM Na-acetate pH 4.0, 20 mM EDTA, 0.05% BSA
BACE-1: 6his-tagged full length BACE 1 from SF9 cells
Substrate peptide: WSEVNLDAEFRC-MR121
BACE1 MR121 protease assay
39 μl of a 38 nM 6his-BACE-1 solution in assay buffer (final conc. in the assay: 30 nM) were pipetted into the assay plate. 1 μl of a concentration of a potential inhibitor in dimethylsulfoxide was added to the enzyme and incubated for 10 min. Finally, 10 μl of a 1.5 μM solution of the substrate in assay buffer (final conc. in the assay: 300 nM) was added to start the enzymatic reaction. After strong mixing for 2 min the enzymatic reaction was followed by measuring the fluorescence intensity every two minutes for 15 min on a suitable fluorescence reader. […] The slope was calculated from the linear part of the kinetic as a measure of the activity of BACE-1. A range of concentrations of the potential inhibitor was used to generate data for calculating the concentration of inhibitor resulting in 50% of the effect (e.g. IC50, the concentration of the compound inhibiting the BACE-1 activity by 50%).
Turning to `NC1=NC(c2ccc(OC(F)F)cc2)(c2cccc(-c3cncnc3)c2)CO1` (racemic) [Example 86, (RS)-4-(4-Difluoromethoxy-phenyl)-4-(3-pyrimidin-5-yl-phenyl)-4,5-dihydro-oxazol-2-ylamine], half-maximal inhibition (IC50) was put at 410 nM.
`NC1=NC(c2ccc(OC(F)F)cc2)(c2cccc(-c3cncc(F)c3)c2)CO1` (racemic) [Example 88, (RS)-4-(4-Difluoromethoxy-phenyl)-4-[3-(5-fluoro-pyridin-3-yl)-phenyl]-4,5-dihydro-oxazol-2-ylamine formate] returned an IC50 of 370 nM. The IC50 values of the last two compounds are within 1.5-fold of each other.
The compound `NC1=NC(c2ccc(OC(F)F)cc2)(c2cccc(-c3cccnc3F)c2)CO1` (racemic) [Example 89, (RS)-4-(4-Difluoromethoxy-phenyl)-4-[3-(2-fluoro-pyridin-3-yl)-phenyl]-4,5-dihydro-oxazol-2-ylamine formate] registered an IC50 of 350 nM. This IC50 and that of the compound before are within 1.5-fold of each other.
Consider `COc1cncc(-c2cccc(C3(c4ccc(OC(F)F)cc4)COC(N)=N3)c2)c1` (racemic) [Example 90, (RS)-4-(4-Difluoromethoxy-phenyl)-4-[3-(5-methoxy-pyridin-3-yl)-phenyl]-4,5-dihydro-oxazol-2-ylamine formate], for which the IC50 came out at 150 nM.
In turn, `COc1cncc(-c2cccc(C3(c4ccc(OC)c(F)c4)COC(N)=N3)c2)c1` (racemic) [Example 92, (RS)-4-(3-Fluoro-4-methoxy-phenyl)-4-[3-(5-methoxy-pyridin-3-yl)-phenyl]-4,5-dihydro-oxazol-2-ylamine formate] displayed an IC50 of 750 nM.
Compound `Cc1cc(C2(c3cccc(-c4cncc(Cl)c4)c3)COC(N)=N2)ccc1OC(F)F` (racemic) [Example 94, (RS)-4-[3-(5-Chloro-pyridin-3-yl)-phenyl]-4-(4-difluoromethoxy-3-methyl-phenyl)-4,5-dihydro-oxazol-2-ylamine formate] gave an IC50 of 60 nM.
`Cc1cc(C2(c3cccc(-c4cccnc4)c3)COC(N)=N2)ccc1OC(F)F` (racemic) [Example 97, (RS)-4-(4-Difluoromethoxy-3-methyl-phenyl)-4-(3-pyridin-3-yl-phenyl)-4,5-dihydro-oxazol-2-ylamine formate] returned a concentration for half-maximal inhibition (IC50) of 120 nM.
In the case of `Cc1cc(C2(c3cccc(-c4cccnc4F)c3)COC(N)=N2)ccc1OC(F)F` (racemic) [Example 98, (RS)-4-(4-Difluoromethoxy-3-methyl-phenyl)-4-[3-(2-fluoro-pyridin-3-yl)-phenyl]-4,5-dihydro-oxazol-2-ylamine formate] it was 150 nM.
In the case of `Cc1cc(C2(c3cccc(-c4cccc(Cl)c4)c3)COC(N)=N2)ccc1OC(F)F` (racemic) [Example 99, (RS)-4-(3′-Chloro-biphenyl-3-yl)-4-(4-difluoromethoxy-3-methyl-phenyl)-4,5-dihydro-oxazol-2-ylamine formate] it was 170 nM; in that of `Cc1cc(C2(c3cccc(-c4cncnc4)c3)COC(N)=N2)ccc1OC(F)F` (racemic) [Example 100, (RS)-4-(4-Difluoromethoxy-3-methyl-phenyl)-4-(3-pyrimidin-5-yl-phenyl)-4,5-dihydro-oxazol-2-ylamine formate], 120 nM; in that of `COc1cncc(-c2cccc(C3(c4ccc(OC(F)F)c(C)c4)COC(N)=N3)c2)c1` (racemic) [Example 101, (RS)-4-(4-Difluoromethoxy-3-methyl-phenyl)-4-[3-(5-methoxy-pyridin-3-yl)-phenyl]-4,5-dihydro-oxazol-2-ylamine formate], 60 nM.
Take `Cc1cc(C2(c3cccc(-c4cncc(F)c4)c3)COC(N)=N2)ccc1OC(F)F` (racemic) [Example 102, (RS)-4-(4-Difluoromethoxy-3-methyl-phenyl)-4-[3-(5-fluoro-pyridin-3-yl)-phenyl]-4,5-dihydro-oxazol-2-ylamine formate]: half-maximal inhibition (IC50) required 210 nM.
For the compound `Cc1cncc(-c2cccc(C3(c4ccc(OC(F)F)c(C)c4)COC(N)=N3)c2)c1` (racemic) [Example 103, (RS)-4-(4-Difluoromethoxy-3-methyl-phenyl)-4-[3-(5-methyl-pyridin-3-yl)-phenyl]-4,5-dihydro-oxazol-2-ylamine formate], it took 320 nM to reach half-maximal inhibition (IC50).
In the case of `Cc1cnc(F)c(-c2cccc(C3(c4ccc(OC(F)F)c(C)c4)COC(N)=N3)c2)c1` (racemic) [Example 104, (RS)-4-(4-Difluoromethoxy-3-methyl-phenyl)-4-[3-(2-fluoro-5-methyl-pyridin-3-yl)-phenyl]-4,5-dihydro-oxazol-2-ylamine formate] it was 130 nM.
On to `COc1ccc(F)c(-c2cccc(C3(c4ccc(OC(F)F)c(C)c4)COC(N)=N3)c2)c1` (racemic) [Example 105, (RS)-4-(4-Difluoromethoxy-3-methyl-phenyl)-4-(2′-fluoro-5′-methoxy-biphenyl-3-yl)-4,5-dihydro-oxazol-2-ylamine formate], for which inhibition was half-maximal at 130 nM (IC50).
In the case of `COc1ccc(C2(c3ccc(F)c(-c4cncc(Cl)c4)c3)COC(N)=N2)cc1Cl` (racemic) [Example 108, (RS)-4-(3-Chloro-4-methoxy-phenyl)-4-[3-(5-chloro-pyridin-3-yl)-4-fluoro-phenyl]-4,5-dihydro-oxazol-2-ylamine formate] it was 290 nM.
The compound `COc1ccc(C2(c3ccc(F)c(-c4cccnc4)c3)COC(N)=N2)cc1Cl` (racemic) [Example 109, (RS)-4-(3-Chloro-4-methoxy-phenyl)-4-(4-fluoro-3-pyridin-3-yl-phenyl)-4,5-dihydro-oxazol-2-ylamine formate] gave an IC50 of 770 nM. Compared with the last compound, the IC50 is about 2.7-fold higher.
Consider `COc1cncc(-c2cc(C3(c4ccc(OC)c(Cl)c4)COC(N)=N3)ccc2F)c1` (racemic) [Example 111, (RS)-4-(3-Chloro-4-methoxy-phenyl)-4-[4-fluoro-3-(5-methoxy-pyridin-3-yl)-phenyl]-4,5-dihydro-oxazol-2-ylamine formate], for which the IC50 is 160 nM. This IC50 is about 4.8-fold lower than that of the compound before.
`COc1ccc(C2(c3ccc(F)c(-c4cncc(F)c4)c3)COC(N)=N2)cc1Cl` (racemic) [Example 112, (RS)-4-(3-Chloro-4-methoxy-phenyl)-4-[4-fluoro-3-(5-fluoro-pyridin-3-yl)-phenyl]-4,5-dihydro-oxazol-2-ylamine]: the IC50 came to 640 nM.
In turn, `COc1ccc(C2(c3ccc(F)c(-c4cc(C)cnc4F)c3)COC(N)=N2)cc1Cl` (racemic) [Example 113, (RS)-4-(3-Chloro-4-methoxy-phenyl)-4-[4-fluoro-3-(2-fluoro-5-methyl-pyridin-3-yl)-phenyl]-4,5-dihydro-oxazol-2-ylamine] came in with a half-maximal inhibitory concentration (IC50) of 730 nM.
In turn, `COc1ccc(F)c(-c2cc(C3(c4ccc(OC)c(Cl)c4)COC(N)=N3)ccc2F)c1` (racemic) [Example 114, (RS)-4-(3-Chloro-4-methoxy-phenyl)-4-(6,2′-difluoro-5′-methoxy-biphenyl-3-yl)-4,5-dihydro-oxazol-2-ylamine formate] returned an IC50 of 660 nM.
On to `NC1=NC(c2cccc(-c3cncc(Cl)c3)c2)(c2ccc(OC(F)F)c(F)c2)CO1` (racemic) [Example 115, (RS)-4-[3-(5-Chloro-pyridin-3-yl)-phenyl]-4-(4-difluoromethoxy-3-fluoro-phenyl)-4,5-dihydro-oxazol-2-ylamine formate], for which 240 nM corresponded to half-maximal inhibition (IC50).

In general, IC50 refers to the concentration that gives 50% inhibition. Read a high IC50 as a need for much substance.
